Marks after values point to notes of the source that are not given here.
What was measured:
[1] = tested on: Meloidogyne incognita nematodes; test: Miniaturized greenhouse nematicidal efficacy assay on cucumber seedlings in sand vials (root gall rating); conditions: 500 M. incognita eggs, harvest 10 to 12 days after inoculation, average of triplicate ratings
Description: A miniaturized greenhouse assay was conducted to study the effects of several 3,5-disubstituted-1,3,4-oxadiazol-2(3H)-one compounds on Meloidogyne incognita nematodes.
Cucumber seeds were sprouted for 3 days in moist paper towels. Acceptable sprouts were 3 to 4 cm long, with several lateral roots just emerging.
Each test solution was evaluated in triplicate. Dry sand (10 mL) was added to each vial. Seedlings were planted by tilting the vial and laying the seedling in the correct orientation so that the cotyledons were just above the sand, and then tilting back to cover the radicles with sand. A sample of the test solution (3.3 mL) was then added to each vial, and the vials were placed in racks under fluorescent light banks. The vials were inoculated two days after planting by adding 500 vermiform M. incognita eggs to each vial in deionized or spring water (50 μL). The vials were then kept under the fluorescent lamps at ambient room temperature and watered as needed with deionized water (1 mL), usually twice during duration of test.
Harvest of the cucumber plants was performed 10 to 12 days after inoculation by washing sand off the roots. A root gall rating was assigned using the following Gall rating scale (Gall: % root mass galled): 0=0-5%; 1=6-20%; 2=21-50%; and 3=51-100%.
Comparative solutions comprising other commercially available nematicidal compounds were also evaluated as controls.

root knot nematode (RKN) [2] = test: RKN greenhouse soil assay on cucumber plants (7 day longevity test); format: in vivo; conditions: inoculated 7 days after application, root galling rated 14 days after egg inoculation, galling reduction relative to control blank
Description: (§1) First, a concentrate was prepared by dissolving 2 milligrams of the test compound in 2 mL of an acetone solvent. Test solutions were then prepared by combining an appropriate amount of the concentrate with an aqueous surfactant solution comprising TRITON X100 (0.05%).
Cucumber seeds were planted in a sandy soil mixture in two inch square plastic pots. When the cotyledons were fully opened and just as the first leaf began to emerge, usually 7 days after planting, a nematicidal test solution was applied to each pot. Five milliliters of the appropriate chemical solution was pipetted to the media surface, making sure to avoid contact with the base of the plant. Immediately following chemical application, using a mist nozzle, the pot surface was wetted sufficiently to saturate the pot, effectively watering the test solution into the soil.
Seven days following application of the test solution, each pot was inoculated with root knot nematode (RKN) eggs. A nematode egg slurry was prepared by adding RKN nematode eggs to distilled water to create a concentration of 1000 vermiform eggs […] of water. […]
The cucumber plants were rated for root galling 14 days after the egg inoculation. […] A commercially available nematicide, fenamiphos, was also evaluated for comparison.

[3] = tested on: soybean cyst nematode (SCN); test: SCN greenhouse sand assay on soybean plants; format: in vivo; conditions: SCN eggs about four hours after application, rated 28 days after egg inoculation
Description: as §1
A similar experiment was conducted with regard to control of soybean cyst nematode (SCN) on soybean plants. Soybean seeds were planted in a media consisting of 80% sand and 20% silt loam soil (v/v) in two inch square plastic pots. […] Approximately four hours after application of the nematicidal test solution, the nematode soybean cyst nematode (SCN) eggs were applied using the procedure described above. The soybean plants were rated for root galling 28 days after the egg inoculation.

root knot nematode (RKN) [4] = test: Seed treatment on cucumber for RKN control; format: in vivo; conditions: 1000 root knot eggs five days after planting, galling rated 14 days after inoculation, versus untreated blank
Description: The excess of 30% by weight of test compound was added for each treatment that would equal 130% of the desired rate to assure target seed loading. The test compound (the amount as described in Table 3A below) and surfactant (optional) were dissolved in 3 mL acetone. AGRIMER VA-6 inert polymer was added at a concentration of 15% of the total test compound weight. Seeds were placed in the drum of the batch lab treater. The drum was rotated. The solutions of test compositions as described above were pipette onto seeds. The drum continued to rotate until the seed were dry.
3 inch by 3 inch plastic pots were filled with a media consisting of 80% sand and 20% silt loam soil (v/v). Treated cucumber seeds were planted ½ inch below the soil surface. Pots were watered as needed. Five days after planting the cucumber plants had the first true leaf emerging and each pot was inoculated with 1000 vermiform root knot eggs. The cucumber plants were rated for root galling 14 days after inoculation. The gall ratings were scored on a scale of 0-100 where, 0=no galls and 100=completely galled. Percent control was determined by comparison to the blank (untreated).

[5] = 40 ppm, scale 0=0-5%, 1=6-20%, 2=21-50%, 3=51-100% root mass galled

Compound	gall ratings ([1]; 1 ppm, scale 0-3)	gall ratings ([1]; 8 ppm, scale 0-3)	gall ratings [1, 5]	other results
O=c1oc(-c2ccc(Cl)cc2)nn1-c1cccs1 [Formula IIa-iv, 5-(4-chlorophenyl)-3-(thiophen-2-yl)-1,3,4-oxadiazol-2(3H)-one]	3.00	1.67	1.00	
O=c1oc(-c2cccs2)nn1-c1ccccc1 [Formula Ia-i, 3-phenyl-5-(thiophen-2-yl)-1,3,4-oxadiazol-2(3H)-one]		2.00	1.00	
O=c1oc(-c2ccco2)nn1-c1ccccc1 [Formula Ia-ii, 5-(furan-2-yl)-3-phenyl-1,3,4-oxadiazol-2(3H)-one]	3.00	1.33	0.00	
O=c1oc(-c2cccs2)nn1-c1ccc(Cl)cc1 [Formula Ia-iii, 3-(4-chlorophenyl)-5-(thiophen-2-yl)-1,3,4-oxadiazol-2(3H)-one]	0.00	0.33	0.00	Percent Control (root knot nematode (RKN) [2]; application rate 0.1 kg/ha): 63^a Percent; Percent Control (root knot nematode (RKN) [2]; application rate 0.25 kg/ha): 70^a Percent; Percent Control ([3]; application rate 0.1 kg/ha): 29^a Percent; Percent Control ([3]; application rate 0.25 kg/ha): 56^a Percent; Percent Control (root knot nematode (RKN) [4]; seed treatment 0.1 mg a.i./seed): 12^b Percent; Percent Control (root knot nematode (RKN) [4]; seed treatment 0.25 mg a.i./seed): 25^b Percent; Percent Control (root knot nematode (RKN) [4]; seed treatment 0.5 mg a.i./seed): 62^a Percent
O=c1oc(-c2cccs2)nn1-c1ccc(F)cc1 [Formula Ia-iv, 3-(4-fluorophenyl)-5-(thiophen-2-yl)-1,3,4-oxadiazol-2(3H)-one]	3.00	2.00	1.33	
O=c1oc(-c2ccco2)nn1-c1ccc(Cl)cc1 [Formula Ia-v, 3-(4-chlorophenyl)-5-(furan-2-yl)-1,3,4-oxadiazol-2(3H)-one]	1.67	1.00	0.33	
O=c1oc(-n2cccc2)nn1-c1ccccc1 [Formula Ic-i, 3-phenyl-5-(1H-pyrrol-1-yl)-1,3,4-oxadiazol-2(3H)-one]		0.33	0.00	
O=c1oc(-n2cccc2)nn1-c1ccc(Cl)cc1 [Formula Ic-ii, 3-(4-chlorophenyl)-5-(1H-pyrrol-1-yl)-1,3,4-oxadiazol-2(3H)-one]	2.33	1.67	1.00	
CNC(=O)O/N=C(\SC)C(=O)N(C)C [Oxamyl, reference compound]				Percent Control ([3]; application rate 0.1 kg/ha): 59^a Percent; Percent Control ([3]; application rate 0.25 kg/ha): 79^a Percent
Abamectin [reference compound]	1.67^b			Percent Control (root knot nematode (RKN) [4]; seed treatment 0.2 mg a.i./seed): 37^a Percent

Source: patent publication US9051309B2, “3,5-disubstituted-1,3,4-oxadiazol-2(3H)-ones and compositions and methods for controlling nematode pests” (Monsanto Technology LLC, priority 2013, dated 2015)
